Test results from patent US9573956B2, “Compounds as dual inhibitors of phosphodiesterases and histone deacetylases” (FUNDACIÓN PARA LA INVESTIGACIÓN MÉDICA APLICADA, priority 2013, dated 2017).
pIC50: −log10 of the molar value.

What was measured:
Format in all cases: biochemical
[1] = target: T1, HDAC6 (Homo sapiens, UniProt Q9UBN7); experiment: HDAC enzyme activity assay (fluorogenic substrate), HDAC6; conditions: recombinant enzyme; read-out: HDAC6 inhibition (IC50)
T1 construct: BC069243; Cat. #50006) is full-length with N-terminal GST tag; GST (N); purchased BPS Biosciences 50006; host or cells: baculovirus infected Sf9 cells
T1 sequence (Q9UBN7 1-1215): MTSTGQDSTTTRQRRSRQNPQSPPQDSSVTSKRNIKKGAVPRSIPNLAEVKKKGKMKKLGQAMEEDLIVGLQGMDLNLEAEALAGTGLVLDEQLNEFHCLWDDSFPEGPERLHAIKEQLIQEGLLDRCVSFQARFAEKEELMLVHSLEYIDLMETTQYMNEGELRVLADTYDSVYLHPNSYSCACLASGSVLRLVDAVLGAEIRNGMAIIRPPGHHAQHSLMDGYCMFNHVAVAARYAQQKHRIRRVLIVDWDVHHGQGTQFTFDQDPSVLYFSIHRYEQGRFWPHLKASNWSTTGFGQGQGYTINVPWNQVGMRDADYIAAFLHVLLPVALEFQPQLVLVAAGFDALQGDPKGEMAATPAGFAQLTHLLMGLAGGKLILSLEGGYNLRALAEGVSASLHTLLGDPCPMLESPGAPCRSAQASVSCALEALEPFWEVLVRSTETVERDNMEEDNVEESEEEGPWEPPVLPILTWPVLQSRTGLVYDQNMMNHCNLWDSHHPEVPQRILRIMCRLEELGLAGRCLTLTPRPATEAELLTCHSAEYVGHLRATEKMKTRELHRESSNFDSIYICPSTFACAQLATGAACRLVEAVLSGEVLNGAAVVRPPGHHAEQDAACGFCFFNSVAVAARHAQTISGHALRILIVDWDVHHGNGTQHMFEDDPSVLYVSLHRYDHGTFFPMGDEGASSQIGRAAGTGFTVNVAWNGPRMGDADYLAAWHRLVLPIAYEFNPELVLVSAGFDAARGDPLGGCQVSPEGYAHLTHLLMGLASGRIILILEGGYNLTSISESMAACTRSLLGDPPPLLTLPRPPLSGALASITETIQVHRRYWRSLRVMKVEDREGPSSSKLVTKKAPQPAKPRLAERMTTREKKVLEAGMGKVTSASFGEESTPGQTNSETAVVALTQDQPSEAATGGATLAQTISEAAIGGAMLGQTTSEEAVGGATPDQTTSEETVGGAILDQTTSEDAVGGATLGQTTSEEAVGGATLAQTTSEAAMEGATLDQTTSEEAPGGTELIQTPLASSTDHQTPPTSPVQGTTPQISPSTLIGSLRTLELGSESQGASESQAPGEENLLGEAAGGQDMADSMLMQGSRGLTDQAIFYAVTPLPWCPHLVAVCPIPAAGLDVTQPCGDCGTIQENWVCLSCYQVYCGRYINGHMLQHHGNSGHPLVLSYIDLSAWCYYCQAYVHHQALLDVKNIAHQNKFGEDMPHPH

[2] = target: T2, PDE5A (Homo sapiens, UniProt O76074); experiment: PDE enzyme activity assay (HTRF cGMP), PDE5A; conditions: recombinant enzyme; read-out: PDE5A1 inhibition (IC50)
T2 construct: they are full-length with N-terminal GST tag; GST (N); purchased BPS Biosciences 60050; host or cells: baculovirus infected Sf9 cells

[3] = target: T3, HDAC2 (Homo sapiens, UniProt Q92769); experiment: HDAC enzyme activity assay (fluorogenic substrate), HDAC2; conditions: recombinant enzyme; read-out: HDAC2 inhibition (IC50)
T3 construct: NM_001527; Cat. #50002) is full-length with C-terminal his tag; His (C); purchased BPS Biosciences 50002; host or cells: baculovirus infected Sf9 cells
T3 sequence (Q92769 whole entry): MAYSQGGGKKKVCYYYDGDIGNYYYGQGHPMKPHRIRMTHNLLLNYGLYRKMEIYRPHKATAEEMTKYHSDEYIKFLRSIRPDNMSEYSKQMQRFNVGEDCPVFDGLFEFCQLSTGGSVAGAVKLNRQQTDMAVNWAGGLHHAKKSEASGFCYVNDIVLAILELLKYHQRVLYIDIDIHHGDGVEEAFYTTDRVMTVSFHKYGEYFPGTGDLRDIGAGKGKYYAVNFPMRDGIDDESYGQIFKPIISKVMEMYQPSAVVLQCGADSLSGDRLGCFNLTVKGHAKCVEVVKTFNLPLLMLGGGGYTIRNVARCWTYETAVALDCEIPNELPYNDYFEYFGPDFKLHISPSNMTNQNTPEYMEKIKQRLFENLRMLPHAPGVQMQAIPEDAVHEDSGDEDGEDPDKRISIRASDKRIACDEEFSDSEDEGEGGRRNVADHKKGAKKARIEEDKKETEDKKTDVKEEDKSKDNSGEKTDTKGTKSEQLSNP

[4] = target: HDAC1 (Homo sapiens, UniProt Q13547); experiment: HDAC enzyme activity assay (fluorogenic substrate), HDAC1; conditions: recombinant enzyme; read-out: HDAC1 inhibition (IC50)
HDAC1, sequence (Q13547 whole entry): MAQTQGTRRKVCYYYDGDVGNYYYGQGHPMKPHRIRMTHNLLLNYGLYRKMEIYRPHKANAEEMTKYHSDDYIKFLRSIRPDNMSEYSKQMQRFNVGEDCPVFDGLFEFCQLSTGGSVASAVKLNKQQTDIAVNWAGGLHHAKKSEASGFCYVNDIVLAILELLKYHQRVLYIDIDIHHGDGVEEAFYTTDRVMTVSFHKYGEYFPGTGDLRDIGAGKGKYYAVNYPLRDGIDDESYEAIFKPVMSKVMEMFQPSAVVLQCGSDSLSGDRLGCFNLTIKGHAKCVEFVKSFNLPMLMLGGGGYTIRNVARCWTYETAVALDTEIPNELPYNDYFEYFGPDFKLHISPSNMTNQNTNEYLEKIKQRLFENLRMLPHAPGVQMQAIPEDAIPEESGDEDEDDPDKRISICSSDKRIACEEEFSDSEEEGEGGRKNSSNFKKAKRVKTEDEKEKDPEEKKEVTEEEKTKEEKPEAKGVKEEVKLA

Structure (SMILES)	pIC50 [1]	pIC50 [2]	pIC50 [3]	pIC50 [4]
CCCc1nn(C)c2c(=O)[nH]c(-c3cc(Nc4ccc(C(=O)NO)cc4)ccc3OCC)nc12 [Example 1-21, 4-[4-ethoxy-3-(1-methyl-7-oxo-3-propyl-6H-pyrazolo[4,3-d]pyrimidin-5-yl)anilino]benzenecarbohydroxamic acid]	6.00 to 8.00	> 8.00	< 5.00	6.00 to 8.00
CCCc1nn(C)c2c(=O)[nH]c(-c3cc(NCC4CCN(c5ncc(C(=O)NO)cn5)CC4)ccc3OCC)nc12 [Example 1-23]	6.00 to 8.00	6.00 to 8.00	6.00 to 8.00	6.00 to 8.00
CCCc1nn(C)c2c(=O)[nH]c(-c3cc(NCCC(=O)NO)ccc3OCC)nc12 [Example 1-33, 3-[4-ethoxy-3-(1-methyl-7-oxo-3-propyl-6H-pyrazolo[4,3-d]pyrimidin-5-yl)anilino]propanehydroxamic acid]	< 5.00	6.00 to 8.00	< 5.00	5.00 to 6.00
CCCc1nn(C)c2c(=O)[nH]c(-c3cc(-c4ccc(CC(=O)NO)cc4)ccc3OCC)nc12 [Example 1-34]	6.00 to 8.00	6.00 to 8.00	< 5.00	< 5.00
CCCc1nn(C)c2c(=O)[nH]c(-c3cc(Oc4ccc(C(=O)NO)cc4)ccc3OCC)nc12 [Example 1-37, 4-[4-ethoxy-3-(1-methyl-7-oxo-3-propyl-6H-pyrazolo[4,3-d]pyrimidin-5-yl)phenoxy]benzenecarbohydroxamic acid]	6.00 to 8.00	6.00 to 8.00	5.00 to 6.00	6.00 to 8.00
CCCc1nn(C)c2c(=O)[nH]c(-c3cc(CC4CCN(c5ccc(C(=O)NO)cn5)CC4)ccc3OCC)nc12 [Example 1-39]	6.00 to 8.00	6.00 to 8.00	5.00 to 6.00	5.00 to 6.00
CCCc1nn(C)c2c(=O)[nH]c(-c3cc(C4=CCC(CC(=O)NO)CC4)ccc3OCC)nc12 (stereo not shown) [Example 1-42]	6.00 to 8.00	6.00 to 8.00	< 5.00	5.00 to 6.00
CCCc1nn(C)c2c(=O)[nH]c(-c3cc(C4CCC(CC(=O)NO)CC4)ccc3OCC)nc12 (stereo not shown) [Example 1-51]	5.00 to 6.00	6.00 to 8.00	< 5.00	5.00 to 6.00
CCCc1nn(C)c2c(=O)[nH]c(-c3cc(N4CCC(CCC(=O)NO)CC4)ccc3OCC)nc12 [Example 1-54]	5.00 to 6.00	6.00 to 8.00	5.00 to 6.00	6.00 to 8.00
CCCc1nn(C)c2c(=O)[nH]c(-c3cc(OCc4ccc(C(=O)NO)cc4)ccc3OCC)nc12 [Example 1-55]	6.00 to 8.00	6.00 to 8.00	< 5.00	5.00 to 6.00
CCCc1nn(C)c2c(=O)[nH]c(-c3cc(N4CCC5(CCC(C(=O)NO)C5)CC4)ccc3OCC)nc12 (stereo not shown) [Example 1-56, 8-[4-ethoxy-3-(1-methyl-7-oxo-3-propyl-6H-pyrazolo[4,3-d]pyrimidin-5-yl)phenyl]-8-azaspiro[4.5]decane-3-carbohydroxamic acid]	5.00 to 6.00	6.00 to 8.00	< 5.00	< 5.00
CCCc1nn(C)c2c(=O)[nH]c(-c3cc(Cc4ccc(/C=C/C(=O)NO)cc4)ccc3OCC)nc12 [Example 1-59]	5.00 to 6.00	6.00 to 8.00	< 5.00	5.00 to 6.00
CCCc1nn(C)c2c(=O)[nH]c(-c3cc(Cc4ccc(C(=O)NO)cc4OC)ccc3OCC)nc12 [Example 1-60]	< 5.00	6.00 to 8.00	< 5.00	< 5.00
CCCc1nn(C)c2c(=O)[nH]c(-c3cc(N4CCCC5(CCC(C(=O)NO)CC5)C4)ccc3OCC)nc12 (stereo not shown) [Example 1-65]	< 5.00	6.00 to 8.00	< 5.00	5.00 to 6.00

Further lines, results first:

pIC50 [1]	pIC50 [2]	pIC50 [3]	pIC50 [4]	Structure (SMILES)
< 5.00	> 8.00	< 5.00	5.00 to 6.00	CCCc1nn(C)c2c(=O)[nH]c(-c3cc(C(=O)NO)ccc3OCC)nc12 [Example 1-27, 4-ethoxy-3-(1-methyl-7-oxo-3-propyl-6H-pyrazolo[4,3-d]pyrimidin-5-yl)benzenecarbohydroxamic acid]
6.00 to 8.00	6.00 to 8.00	< 5.00	6.00 to 8.00	CCCc1nn(C)c2c(=O)[nH]c(-c3cc(CC4CCC(C(=O)NO)CC4)ccc3OCC)nc12 (stereo not shown) [Example 1-28, 4-[[4-ethoxy-3-(1-methyl-7-oxo-3-propyl-6H-pyrazolo[4,3-d]pyrimidin-5-yl)phenyl]methyl]cyclohexanecarbohydroxamic acid]
5.00 to 6.00	6.00 to 8.00	< 5.00	5.00 to 6.00	CCCc1nn(C)c2c(=O)[nH]c(-c3cc(CCC(=O)NO)ccc3OCC)nc12 [Example 1-31, 3-[4-ethoxy-3-(1-methyl-7-oxo-3-propyl-6H-pyrazolo[4,3-d]pyrimidin-5-yl)phenyl]propanehydroxamic acid]
5.00 to 6.00	6.00 to 8.00	< 5.00	5.00 to 6.00	CCCc1nn(C)c2c(=O)[nH]c(-c3cc(N4CCC(C(=O)NO)CC4)ccc3OCC)nc12 [Example 1-35, 1-[4-ethoxy-3-(1-methyl-7-oxo-3-propyl-6H-pyrazolo[4,3-d]pyrimidin-5-yl)phenyl]piperidine-4-carbohydroxamic acid]
5.00 to 6.00	6.00 to 8.00	< 5.00	5.00 to 6.00	CCCc1nn(C)c2c(=O)[nH]c(-c3cc(CN4CCC(C(=O)NO)CC4)ccc3OCC)nc12 [Example 1-36, 1-[[4-ethoxy-3-(1-methyl-7-oxo-3-propyl-6H-pyrazolo[4,3-d]pyrimidin-5-yl)phenyl]methyl]piperidine-4-carbohydroxamic acid]
6.00 to 8.00	6.00 to 8.00	< 5.00	5.00 to 6.00	CCCc1nn(C)c2c(=O)[nH]c(-c3cc(C4=CCC(C(=O)NO)CC4)ccc3OCC)nc12 (stereo not shown) [Example 1-38, 4-[4-ethoxy-3-(1-methyl-7-oxo-3-propyl-6H-pyrazolo[4,3-d]pyrimidin-5-yl)phenyl]cyclohex-3-ene-1-carbohydroxamic acid]
5.00 to 6.00	6.00 to 8.00	< 5.00	< 5.00	CCCc1nn(C)c2c(=O)[nH]c(-c3cc(C4CCC(C(=O)NO)CC4)ccc3OCC)nc12 (stereo not shown) [Example 1-41, 4-[4-ethoxy-3-(1-methyl-7-oxo-3-propyl-6H-pyrazolo[4,3-d]pyrimidin-5-yl)phenyl]cyclohexanecarbohydroxamic acid]
5.00 to 6.00	6.00 to 8.00	< 5.00	< 5.00	CCCc1nn(C)c2c(=O)[nH]c(-c3cc(CC4CCN(C(=O)NO)CC4)ccc3OCC)nc12 [Example 1-49, 4-[[4-ethoxy-3-(1-methyl-7-oxo-3-propyl-6H-pyrazolo[4,3-d]pyrimidin-5-yl)phenyl]methyl]piperidine-1-carbohydroxamic acid]
5.00 to 6.00	6.00 to 8.00	5.00 to 6.00	5.00 to 6.00	CCCc1nn(C)c2c(=O)[nH]c(-c3cc(OC4CCC(C(=O)NO)CC4)ccc3OCC)nc12 (stereo not shown) [Example 1-53]
6.00 to 8.00	6.00 to 8.00	6.00 to 8.00	6.00 to 8.00	CCCc1nn(C)c2c(=O)[nH]c(-c3cc(CC4CC(C(=O)NO)C4)ccc3OCC)nc12 (stereo not shown) [Example 1-62, 3-[[4-ethoxy-3-(1-methyl-7-oxo-3-propyl-6H-pyrazolo[4,3-d]pyrimidin-5 yl)phenyl]methyl]cyclobutanecarbohydroxamic acid]
6.00 to 8.00	6.00 to 8.00	5.00 to 6.00	6.00 to 8.00	CCCc1nn(C)c2c(=O)[nH]c(-c3cc(CC4CC(C(=O)NO)C4)ccc3OCC)nc12 (stereo not shown) [Example 1-63, 3-[[4-ethoxy-3-(1-methyl-7-oxo-3-propyl-6H-pyrazolo[4,3-d]pyrimidin-5 yl)phenyl]methyl]cyclobutanecarbohydroxamic acid]
